{"source": "patent US9932637B2", "about": "“Genetic polymorphisms associated with cardiovascular disorders and drug response, methods of detection and uses thereof” (CELERA CORPORATION, priority 2003, dated 2018)", "tested_on": "patients with prior myocardial infarction (CARE study)", "assay": "CARE aligned analysis (prospective and case/control design, white males): association of genotypes with pravastatin efficacy (Tables 13, 15)", "format": "in vivo, human", "details": "for Pravastatin Patients (%) / Pravastatin Patients n/total / 2 Rare Alleles (%), Pravastatin Patients / 2 Rare Alleles n/total, Pravastatin Patients: F&NF MI; for Pravastatin Patients (%) / Pravastatin Patients n/total: WM; for 2 rare alleles n/total (%), pravastatin patients / Pravastatin vs placebo odds ratio, 0 rare alleles / Pravastatin vs placebo odds ratio, 1 rare allele / Pravastatin vs placebo odds ratio, 2 rare alleles: CARE, F MI/SD/NF MI", "procedure": "The data presented in Table 8 based on an association of genotypes with pravastatin efficacy of the CARE samples were further analyzed and presented in Table 13. The further analysis was performed to align the data obtained from the analysis of the CARE samples, which was a prospective study, to the analysis of the WOSCOP samples, which was a case/control study. Table 13 also presents an analysis of the association of genotypes with pravastatin efficacy in the WOSCOPs samples. Relative to the analysis performed on the data presented in Table 8, there are two significant differences to determine if the SNP influenced pravastatin efficacy. Data obtained from the CARE samples were separated by study design into two groups, those in the prospective study design group and those in the case/control study design group. The original care study contained 16 protocol defined cardiovascular disease defined endpoints and 150 other phenotypes. […] The control groups used to compare the data were also divided into two groups, the “all possible” control group and the “cleaner” control group. […] Because the participants in the WOSCOPs trial were all white males, only data obtained from white males in the CARE study were analysed. Data from the “all possible” and “cleaner” controls were compared to data obtained from the cases in the prospective study design while only data from “cleaner” controls were compared to cases in the case/control study design. The data from the case/control cohorts were analysed using conditional logistic regression (as opposed to logistic regression used for the original anaylsis).\nThe anaylsis was refined as described for both Tables 13 and 14.", "key": {"[1]": {"details": "HLA-DPB1 hCV8851085, 0 Rare Alleles, CARE Prospective, Cleaner controls"}, "[2]": {"details": "HLA-DPB1 hCV8851085, 1 Rare Allele, CARE Case/Control, All Possible controls"}, "[3]": {"details": "HLA-DPB1 hCV8851085, 1 Rare Allele, CARE Case/Control, Cleaner controls"}, "[4]": {"details": "HLA-DPB1 hCV8851085, 1 Rare Allele, CARE Prospective, All Possible controls"}, "[5]": {"details": "HLA-DPB1 hCV8851085, 1 Rare Allele, CARE Prospective, Cleaner controls"}, "[6]": {"details": "HLA-DPB1 hCV8851085, Case/Control"}, "[7]": {"details": "HLA-DPB1 hCV8851085, Prospective"}, "[8]": {"details": "HLA-DPB1 hCV25651174, Case/Control"}, "[9]": {"details": "HLA-DPB1 hCV25651174, Prospective"}, "[10]": {"details": "HLA-DQB1 hCV9494470, 0 Rare Alleles, CARE Case/Control, All Possible controls"}, "[11]": {"details": "HLA-DQB1 hCV9494470, 0 Rare Alleles, CARE Case/Control, Cleaner controls"}, "[12]": {"details": "HLA-DQB1 hCV9494470, 0 Rare Alleles, CARE Prospective, All Possible controls"}, "[13]": {"details": "HLA-DQB1 hCV9494470, 0 Rare Alleles, CARE Prospective, Cleaner controls"}, "[14]": {"details": "HLA-DQB1 hCV9494470, 1 Rare Allele, CARE Case/Control, All Possible controls"}, "[15]": {"details": "HLA-DQB1 hCV9494470, 1 Rare Allele, CARE Case/Control, Cleaner controls"}, "[16]": {"details": "HLA-DQB1 hCV9494470, 1 Rare Allele, CARE Prospective, All Possible controls"}, "[17]": {"details": "HLA-DQB1 hCV9494470, 1 Rare Allele, CARE Prospective, Cleaner controls"}, "[18]": {"details": "HLA-DQB1 hCV9494470, Case/Control"}, "[19]": {"details": "HLA-DQB1 hCV9494470, Prospective"}, "[20]": {"details": "IL1RN hCV8737990, 0 Rare Alleles, CARE Case/Control, Cleaner controls"}, "[21]": {"details": "IL1RN hCV8737990, 0 Rare Alleles, CARE Prospective, All Possible controls"}, "[22]": {"details": "IL1RN hCV8737990, 0 Rare Alleles, CARE Prospective, Cleaner controls"}, "[23]": {"details": "IL1RN hCV8737990, 1 Rare Allele, CARE Case/Control, Cleaner controls"}, "[24]": {"details": "IL1RN hCV8737990, 1 Rare Allele, CARE Prospective, All Possible controls"}, "[25]": {"details": "IL1RN hCV8737990, 1 Rare Allele, CARE Prospective, Cleaner controls"}}, "note": "Values joined by “and” are separate entries in the source; they are usually repeats but may differ in a detail not shown here. Identical values can stand only once.", "data": [{"smiles": "CC[C@H](C)C(=O)O[C@H]1C[C@H](O)C=C2C=C[C@H](C)[C@H](CC[C@@H](O)C[C@@H](O)CC(=O)O)[C@H]21", "note": "[pravastatin]", "values": [{"measurement": "Pravastatin Patients (%)", "setting": "[1]", "value": "(14.1%)"}, {"measurement": "Pravastatin Patients n/total", "setting": "[1]", "value": "74/523"}, {"measurement": "Pravastatin Patients (%)", "setting": "[2]", "value": "(10.3%)"}, {"measurement": "Pravastatin Patients n/total", "setting": "[2]", "value": "44/426"}, {"measurement": "Pravastatin Patients (%)", "setting": "[3]", "value": "(15.1%)"}, {"measurement": "Pravastatin Patients n/total", "setting": "[3]", "value": "44/292"}, {"measurement": "Pravastatin Patients (%)", "setting": "[4]", "value": "(10.2%)"}, {"measurement": "Pravastatin Patients n/total", "setting": "[4]", "value": "44/433"}, {"measurement": "Pravastatin Patients (%)", "setting": "[5]", "value": "(14.9%)"}, {"measurement": "Pravastatin Patients n/total", "setting": "[5]", "value": "44/295"}, {"measurement": "2 Rare Alleles (%), Pravastatin Patients", "setting": "HLA-DPB1 hCV8851085, CARE Case/Control", "value": "(25.7%)"}, {"measurement": "2 rare alleles n/total (%), pravastatin patients", "setting": "[6]", "value": "(22.9%)"}, {"measurement": "Pravastatin vs placebo odds ratio, 0 rare alleles", "setting": "[6]", "value": 0.57}, {"measurement": "Pravastatin vs placebo odds ratio, 1 rare allele", "setting": "[6]", "value": 0.87}, {"measurement": "Pravastatin vs placebo odds ratio, 2 rare alleles", "setting": "[6]", "value": 4.69}, {"measurement": "2 rare alleles n/total (%), pravastatin patients", "setting": "[7]", "value": "(22.9%)"}, {"measurement": "Pravastatin vs placebo odds ratio, 0 rare alleles", "setting": "[7]", "value": 0.58}, {"measurement": "Pravastatin vs placebo odds ratio, 1 rare allele", "setting": "[7]", "value": 0.85}, {"measurement": "Pravastatin vs placebo odds ratio, 2 rare alleles", "setting": "[7]", "value": 4.15}, {"measurement": "2 Rare Alleles n/total, Pravastatin Patients", "setting": "HLA-DPB1 hCV25651174, CARE Case/Control", "value": "17/109"}, {"measurement": "2 Rare Alleles n/total, Pravastatin Patients", "setting": "HLA-DPB1 hCV25651174, CARE Prospective", "value": "17/110 and 17/77"}, {"measurement": "Pravastatin vs placebo odds ratio, 0 rare alleles", "setting": "[8]", "value": "0.59 and 0.51"}, {"measurement": "Pravastatin vs placebo odds ratio, 1 rare allele", "setting": "[8]", "value": "0.84 and 0.75"}, {"measurement": "Pravastatin vs placebo odds ratio, 2 rare alleles", "setting": "[8]", "value": "4.39 and 4.91"}, {"measurement": "Pravastatin vs placebo odds ratio, 0 rare alleles", "setting": "[9]", "value": "0.59 and 0.52"}, {"measurement": "Pravastatin vs placebo odds ratio, 1 rare allele", "setting": "[9]", "value": "0.84 and 0.72"}, {"measurement": "Pravastatin vs placebo odds ratio, 2 rare alleles", "setting": "[9]", "value": "4.29 and 4.60"}, {"measurement": "Pravastatin Patients (%)", "setting": "[10]", "value": "(11.1%)"}, {"measurement": "Pravastatin Patients n/total", "setting": "[10]", "value": "92/826"}, {"measurement": "Pravastatin Patients (%)", "setting": "[11]", "value": "(16.1%)"}, {"measurement": "Pravastatin Patients n/total", "setting": "[11]", "value": "92/572"}, {"measurement": "Pravastatin Patients (%)", "setting": "[12]", "value": "(11.0%)"}, {"measurement": "Pravastatin Patients n/total", "setting": "[12]", "value": "92/840"}, {"measurement": "Pravastatin Patients (%)", "setting": "[13]", "value": "(15.8%)"}, {"measurement": "Pravastatin Patients n/total", "setting": "[13]", "value": "92/583"}, {"measurement": "Pravastatin Patients (%)", "setting": "[14]", "value": "(7.9%)"}, {"measurement": "Pravastatin Patients n/total", "setting": "[14]", "value": "28/353"}, {"measurement": "Pravastatin Patients (%)", "setting": "[15]", "value": "(11.5%)"}, {"measurement": "Pravastatin Patients n/total", "setting": "[15]", "value": "28/244"}, {"measurement": "Pravastatin Patients (%)", "setting": "[16]", "value": "(7.8%)"}, {"measurement": "Pravastatin Patients n/total", "setting": "[16]", "value": "28/361"}, {"measurement": "Pravastatin Patients (%)", "setting": "[17]", "value": "(11.3%)"}, {"measurement": "Pravastatin Patients n/total", "setting": "[17]", "value": "28/247"}, {"measurement": "Pravastatin vs placebo odds ratio, 0 rare alleles", "setting": "[18]", "value": "0.99 and 0.90"}, {"measurement": "Pravastatin vs placebo odds ratio, 1 rare allele", "setting": "[18]", "value": "0.40 and 0.36"}, {"measurement": "Pravastatin vs placebo odds ratio, 2 rare alleles", "setting": "[18]", "value": "2.00 and 2.22"}, {"measurement": "Pravastatin vs placebo odds ratio, 0 rare alleles", "setting": "[19]", "value": "0.99 and 0.87"}, {"measurement": "Pravastatin vs placebo odds ratio, 1 rare allele", "setting": "[19]", "value": "0.42 and 0.38"}, {"measurement": "Pravastatin vs placebo odds ratio, 2 rare alleles", "setting": "[19]", "value": "2.06 and 2.16"}, {"measurement": "Pravastatin Patients (%)", "setting": "[20]", "value": "(14.9%)"}, {"measurement": "Pravastatin Patients n/total", "setting": "[20]", "value": "66/444"}, {"measurement": "Pravastatin Patients (%)", "setting": "[21]", "value": "(10.3%)"}, {"measurement": "Pravastatin Patients n/total", "setting": "[21]", "value": "66/642"}, {"measurement": "Pravastatin Patients (%)", "setting": "[22]", "value": "(14.6%)"}, {"measurement": "Pravastatin Patients n/total", "setting": "[22]", "value": "66/453"}, {"measurement": "Pravastatin Patients (%)", "setting": "[23]", "value": "(13.0%)"}, {"measurement": "Pravastatin Patients n/total", "setting": "[23]", "value": "43/332"}, {"measurement": "Pravastatin Patients (%)", "setting": "[24]", "value": "(8.7%)"}, {"measurement": "Pravastatin Patients n/total", "setting": "[24]", "value": "43/496"}, {"measurement": "Pravastatin Patients (%)", "setting": "[25]", "value": "(12.8%)"}, {"measurement": "Pravastatin Patients n/total", "setting": "[25]", "value": "43/336"}, {"measurement": "2 Rare Alleles (%), Pravastatin Patients", "setting": "IL1RN hCV8737990, CARE Case/Control", "value": "(27.4%)"}, {"measurement": "2 rare alleles n/total (%), pravastatin patients", "setting": "IL1RN hCV8737990, Case/Control", "value": "(21.1%)"}, {"measurement": "Pravastatin vs placebo odds ratio, 0 rare alleles", "setting": "IL1RN hCV8737990, Case/Control", "value": 0.77}, {"measurement": "Pravastatin vs placebo odds ratio, 1 rare allele", "setting": "IL1RN hCV8737990, Case/Control", "value": 0.50}, {"measurement": "Pravastatin vs placebo odds ratio, 2 rare alleles", "setting": "IL1RN hCV8737990, Case/Control", "value": 1.97}, {"measurement": "2 rare alleles n/total (%), pravastatin patients", "setting": "IL1RN hCV8737990, Prospective", "value": "(20.7%)"}, {"measurement": "Pravastatin vs placebo odds ratio, 0 rare alleles", "setting": "IL1RN hCV8737990, Prospective", "value": 0.80}, {"measurement": "Pravastatin vs placebo odds ratio, 1 rare allele", "setting": "IL1RN hCV8737990, Prospective", "value": 0.46}, {"measurement": "Pravastatin vs placebo odds ratio, 2 rare alleles", "setting": "IL1RN hCV8737990, Prospective", "value": 1.92}, {"measurement": "Pravastatin vs placebo odds ratio, 0 rare alleles", "setting": "IL4R hCV2769554, Case/Control", "value": "0.58 and 0.57"}]}]}
